T1: Phenylethanolamine N-methyltransferase (Bos taurus, UniProt P10938)
T1 sequence (P10938 whole entry): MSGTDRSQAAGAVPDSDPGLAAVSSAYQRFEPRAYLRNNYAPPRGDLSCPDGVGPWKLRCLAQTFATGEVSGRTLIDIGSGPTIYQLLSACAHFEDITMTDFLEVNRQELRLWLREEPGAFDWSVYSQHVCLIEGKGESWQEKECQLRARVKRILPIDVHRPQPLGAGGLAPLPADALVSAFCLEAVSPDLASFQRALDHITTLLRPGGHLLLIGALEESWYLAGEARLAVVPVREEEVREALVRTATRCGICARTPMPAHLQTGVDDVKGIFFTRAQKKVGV


Tests used:
[1] = biological target: T1, Phenylethanolamine N-methyltransferase; test: Tested for inhibitory activity against bovine adrenal norepinephrine N-methyl-transferase using phenylethanolamine as substrate
[2] = Vmax was determined; type: ADME
[3] = compound: NCC1(O)CCCCCCCCCC1; test: (§1) Tested for inhibitory constant against bovine adrenal norepinephrine N-methyl-transferase
[4] = compound: NC[C@@]1(O)CCC2CCCCC2C1; test: as §1
[5] = compound: NC[C@]1(O)CCC2CCCCC2C1; test: as §1

Ki [1]	Vmax [2]	Molecule	Km [3]	Km [4]	Km [5]
3.8 µM	0.024 nmol/min/mg	NC[C@]1(O)CCC2CCCCC2C1 (some centres undefined)			
5.63 µM	0.03 nmol/min/mg	NC[C@@]1(O)CCC2CCCCC2C1 (some centres undefined)			
3.56 µM	0.04 nmol/min/mg	NCC1(O)CCCCCCCCCC1			
		Phenylethanolamine N-methyltransferase (Bos taurus), P10938 (protein) MSGTDRSQAAGAVPDSDPGLAAVSSAYQRFEPRAYLRNNYAPPRGDLSCPDGVGPWKLRCLAQTFATGEVSGRTLIDIGSGPTIYQLLSACAHFEDITMTDFLEVNRQELRLWLREEPGAFDWSVYSQHVCLIEGKGESWQEKECQLRARVKRILPIDVHRPQPLGAGGLAPLPADALVSAFCLEAVSPDLASFQRALDHITTLLRPGGHLLLIGALEESWYLAGEARLAVVPVREEEVREALVRTATRCGICARTPMPAHLQTGVDDVKGIFFTRAQKKVGV	6.8 µM	4.7 µM	5.7 µM
